As a reminder, the Ki is the dissociation constant of the complex between target and ligand, obtained from inhibition or displacement. Low readings indicate higher affinity, high ones lower affinity. As usually defined, the EC50 is the midpoint of the concentration-response curve. Low values mean greater potency, high ones weaker potency. Usually pKi stands for the Ki on a negative log10 scale, so that one unit is a factor of ten.

Some results are limits rather than exact numbers.

Data on eight compounds can be found in ChEMBL document CHEMBL1141074, “Pharmacophore-guided drug discovery investigations leading to bioactive 5-aminotetrahydropyrazolopyridines. Implications for the binding mode of heterocyclic dopamine D3 receptor agonists” (J Med Chem, 2005).

Assay [1] deals with T1, D(2) dopamine receptor (Homo sapiens, UniProt P14416). Briefly: Binding affinity towards human dopamine receptor 2 (long) expressed in Chinese hamster ovary cells using [3H]spiperone (0.5 nM) as radioligand. It is filed as cell-based.
Assay [2] concerns the target T1, D(2) dopamine receptor. The experiment in a line: Binding affinity towards human dopamine receptor 2 (short) expressed in Chinese hamster ovary cells using [3H]spiperone (0.5 nM) as radioligand. It is filed as cell-based.
Assay [3] addresses T2, D(1A) dopamine receptor (Sus scrofa, UniProt P50130). Briefly: Binding affinity towards porcine dopamine receptor 1 against radioligand [3H]-SCH- 23390.
Assay [4] addresses T3, D(3) dopamine receptor (Homo sapiens, UniProt P35462). The experiment in a line: Binding affinity towards human dopamine receptor 3 expressed in Chinese hamster ovary cells using [3H]spiperone (0.5 nM) as radioligand. It is filed as cell-based.
Assay [5] has as its target T4, D(4) dopamine receptor (Homo sapiens, UniProt P21917).
T4 sequence (P21917 whole entry): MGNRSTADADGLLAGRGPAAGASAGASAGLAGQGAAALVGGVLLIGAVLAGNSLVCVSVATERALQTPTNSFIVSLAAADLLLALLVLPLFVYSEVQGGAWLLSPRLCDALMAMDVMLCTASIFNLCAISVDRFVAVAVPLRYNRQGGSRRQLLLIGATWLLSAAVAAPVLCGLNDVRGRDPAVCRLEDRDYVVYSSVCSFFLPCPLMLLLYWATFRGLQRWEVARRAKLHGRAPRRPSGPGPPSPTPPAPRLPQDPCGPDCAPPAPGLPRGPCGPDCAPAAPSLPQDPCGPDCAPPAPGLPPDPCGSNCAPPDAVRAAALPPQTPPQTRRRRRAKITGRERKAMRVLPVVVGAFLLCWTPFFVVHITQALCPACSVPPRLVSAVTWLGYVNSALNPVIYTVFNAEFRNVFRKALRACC
Briefly: Binding affinity towards human dopamine receptor 4.4 expressed in Chinese hamster ovary cells using [3H]spiperone (0.5 nM) as radioligand. It is filed as cell-based.

Assay [6] has as its target T4, D(4) dopamine receptor. The experiment in a line: biochemical. It is filed as cell-based, ovary.
The target in assay [7] is T4, D(4) dopamine receptor. The experiment in a line: biochemical. It is filed as cell-based, ovary. The source holds these as a separate data set.
The target of assay [8] is T1, D(2) dopamine receptor. Briefly: Low binding affinity towards human dopamine receptor 2 (long) expressed in Chinese hamster ovary cells using [3H]spiperone (0.5 nM) as radioligand. It is filed as cell-based.
For assay [9], the target named is T1, D(2) dopamine receptor. The experiment in a line: High binding affinity towards human dopamine receptor 2 (long) expressed in Chinese hamster ovary cells using [3H]spiperone (0.5 nM) as radioligand. It is filed as cell-based.
The target in assay [10] is T1, D(2) dopamine receptor. The experiment in a line: Low binding affinity towards human dopamine receptor 2 (short) expressed in Chinese hamster ovary cells using [3H]spiperone (0.5 nM) as radioligand. It is filed as cell-based.
The target in assay [11] is T1, D(2) dopamine receptor. The experiment in a line: biochemical. It is filed as cell-based, ovary.
Assay [12] deals with T2, D(1A) dopamine receptor. Briefly: Binding affinity (low) towards porcine dopamine receptor 1 against radioligand [3H]-SCH- 23390.
Assay [13] addresses T3, D(3) dopamine receptor. The experiment in a line: biochemical.
The target of assay [14] is T3, D(3) dopamine receptor. Briefly: biochemical. This is another data set of the same source.
For assay [15], the target named is T2, D(1A) dopamine receptor. Briefly: Binding affinity (low) towards porcine dopamine receptor 1 by using [3H]-SCH- 23390 (0.3 nM) as radioligand.
The target of assay [16] is T3, D(3) dopamine receptor. The experiment in a line: Effective concentration against dopamine D3 receptor.
Assay [17] concerns the target T3, D(3) dopamine receptor. Briefly: Binding affinity towards dopamine D3 receptor.

T2 sequence (P50130 whole entry): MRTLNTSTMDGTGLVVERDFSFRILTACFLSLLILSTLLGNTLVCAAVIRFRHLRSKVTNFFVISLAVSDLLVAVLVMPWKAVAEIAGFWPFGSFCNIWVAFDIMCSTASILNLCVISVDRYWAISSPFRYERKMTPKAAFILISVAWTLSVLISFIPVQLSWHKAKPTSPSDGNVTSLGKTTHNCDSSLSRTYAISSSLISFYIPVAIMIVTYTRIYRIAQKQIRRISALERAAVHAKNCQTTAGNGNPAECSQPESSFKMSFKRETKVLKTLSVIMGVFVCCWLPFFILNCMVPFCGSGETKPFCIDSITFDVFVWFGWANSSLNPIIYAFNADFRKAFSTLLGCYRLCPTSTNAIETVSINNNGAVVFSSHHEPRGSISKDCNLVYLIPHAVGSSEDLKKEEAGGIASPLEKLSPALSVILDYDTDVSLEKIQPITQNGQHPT
T3 sequence (P35462 whole entry): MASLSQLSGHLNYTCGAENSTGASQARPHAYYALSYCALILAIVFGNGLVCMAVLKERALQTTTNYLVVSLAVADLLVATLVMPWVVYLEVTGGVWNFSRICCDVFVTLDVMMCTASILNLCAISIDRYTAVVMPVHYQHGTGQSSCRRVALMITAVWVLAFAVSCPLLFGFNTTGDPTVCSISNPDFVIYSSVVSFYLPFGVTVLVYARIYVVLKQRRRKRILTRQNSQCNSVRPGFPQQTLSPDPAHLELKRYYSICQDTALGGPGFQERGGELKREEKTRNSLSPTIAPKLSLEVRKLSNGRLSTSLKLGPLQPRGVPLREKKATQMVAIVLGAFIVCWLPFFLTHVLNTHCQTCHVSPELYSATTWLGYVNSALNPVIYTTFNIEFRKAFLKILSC
T1 sequence (P14416 whole entry): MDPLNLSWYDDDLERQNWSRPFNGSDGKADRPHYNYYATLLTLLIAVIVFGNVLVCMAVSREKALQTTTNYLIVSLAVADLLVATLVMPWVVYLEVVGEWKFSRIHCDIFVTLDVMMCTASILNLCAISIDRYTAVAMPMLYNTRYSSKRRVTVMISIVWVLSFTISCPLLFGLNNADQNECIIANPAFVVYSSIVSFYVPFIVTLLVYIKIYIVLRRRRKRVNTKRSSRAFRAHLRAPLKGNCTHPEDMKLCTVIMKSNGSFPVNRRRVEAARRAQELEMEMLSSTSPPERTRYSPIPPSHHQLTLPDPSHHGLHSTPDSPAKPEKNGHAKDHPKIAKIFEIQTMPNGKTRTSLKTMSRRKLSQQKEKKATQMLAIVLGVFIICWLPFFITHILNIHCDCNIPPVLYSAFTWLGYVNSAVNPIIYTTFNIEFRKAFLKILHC

Take `CCCNC1CCn2ncc(C(=O)OC)c2C1` (stereo not given): the Ki in assay [1] was more than 100 µM; in [2], more than 100 µM; in [3], more than 20 µM; in assay [4], 12 µM; in assay [5], 90 µM.

`CCCN(CCC)[C@@H]1CCn2nccc2C1`: the Ki is more than 20 µM in assay [1]; more than 20 µM in assay [2]; more than 20 µM in assay [3]; 2.7 µM in assay [4]; 13 µM in [5].

Take `CCCN(CCC)C1CCn2nccc2C1` (racemic): the Ki stood at 1.6 µM in assay [6]; 0.058 µM in [7]; 18 µM in assay [8]; 0.22 µM in assay [9]; 8.5 µM in assay [10]; 0.16 µM in assay [11]. Further, the Ki in [12] was more than 20 µM; in assay [13], 0.2 µM; in [14], 0.0067 µM.

For `CCCN(CCC)C1CCn2ncc(C=O)c2C1` (stereo not given), the Ki in [1] was 5.9 µM; in assay [2] it was 4 µM; in assay [3], more than 20 µM; in assay [4], 12 µM; in assay [5] it was 14 µM.

As to `CCCN(CCC)[C@H]1CCn2nccc2C1`, the Ki in assay [15] is more than 20 µM; in [6], 1.7 µM; in [7], 0.058 µM; in assay [8], 15 µM; in assay [9], 0.18 µM; in [10], 10 µM. The Ki in assay [11] was 0.25 µM; in assay [13], 0.11 µM; in assay [14], 0.004 µM. The same compound returned an EC50 in assay [16] of 0.0034 µM. This compound also returned a pKi in [17] of 8.4.

With `CCCN(CCC)C1CCn2ncc(Cl)c2C1` (stereo not given), the Ki is more than 20 µM in assay [15]; 6.4 µM in assay [6]; 0.2 µM in assay [7]; more than 20 µM in [8]; 0.12 µM in assay [9]; 12 µM in assay [10]. Moreover, the Ki was 0.21 µM in assay [11], 0.23 µM in assay [13] and 0.0061 µM in assay [14]. The same compound showed an EC50 in [16] of 0.0045 µM.

As to `CCCN(CCC)C1CCn2ncc(C(=O)OC)c2C1` (stereo not given), the Ki in assay [1] was more than 20 µM; in assay [2], more than 20 µM; in assay [3] it was more than 20 µM; in [4], 17 µM; in assay [5], more than 20 µM.

Regarding `CCCN(CCC)C1CCn2ncc(CO)c2C1` (stereo not given), the Ki in [1] is more than 20 µM; in [2], more than 20 µM; in assay [3], more than 20 µM; in assay [4], 4 µM; in assay [5], 16 µM.
